From ChEMBL document CHEMBL1147333, “Brominated indole alkaloids from the marine tunicate Pseudodistoma arborescens” (J Nat Prod, 1993)
≈ marks a conversion by molar mass, not a printed value.

Tested on: KB
Test: Cytotoxicity against human KB cells
Assay type: functional, cell-based

SMILES: CN1CCc2c3n(c4cc(Br)ccc24)[C@H](O)CCC[C@@H]31 [ARBORESCIDINE D]
- IC50: 3 µg/mL (≈ 8.95 µM)
